Square brackets hold non-standard residues; d marks the D form. Ends that are not written are not given here. pT = C[C@@H](OP(=O)(O)O)[C@H](N)C(=O)O
Assays:
[1] = tested on: isolated human neutrophils; assay: Neutrophil chemotaxis assay (Zigmond chamber); assay type: cell-based
Description: A suspension of 1×10^6 human PMNs in 100 μL HBSS containing 1% gelatin (Sigma-Aldrich) was placed on a 5% bovine serum albumin-coated 22×40 mm glass coverslip and incubated for 10 minutes at 37° C. Coverslips were then inverted onto a Zigmond chamber. Hundred microliters of HBSS and 100 μL HBSS containing N-formyl-methionyl-leucyl-phenylalanine (fMLP) 10^-6M or different concentrations of salivaricin 10 were added to the left and right chambers, respectively. PMN migration across the chamber was recorded with time-lapse of video microscopy at 20 second intervals for a period of 10 minutes using a Zeiss Motorized AxioVert (ZEISS). Captured images were analyzed using cell-tracking software (Retrac, v2.1.0.).

[2] = tested on: M. luteus; assay: Zone of inhibition of the isolated peptides (spot-on-lawn); assay type: cell-based; conditions: lantibiotic-sensitive target M. luteus
Description: Pure and homogenized SALI-10 colonies were selected to inoculate 10 ml of TSB supplemented with 2% yeast extract. The fermentation was carried out overnight at 37° C. with 5% CO2 for 18 h. The produced culture was used to inoculate 20 Petri dishes (100 mm), each containing 20 mL of TSA supplemented with 2% yeast extract and 0.2% CaCO3 and incubated as mentioned above (step 1). The agar cultures were then cut into small pieces and put into 250 mL centrifugation bottles. The bottles were incubated at −80° C. for 18 h and thawed immediately in a 70° C. water bath to produce liquid material. The liquid material was then collected by centrifugation, and the resultant supernatant was extracted with one volume of chloroform. The white precipitate from chloroform extraction was dried and resuspended in 2 ml of 35% acetonitrile in water (v/v). Centrifugation was performed to remove insoluble material to produce a clear peptide extract (we call it material A). The process was repeated with induction procedure by adding 50 μl of material A to 50 ml of TSB supplemented with yeast extract and inoculating this media with SALI-10 strain by repeating step 1 and generating 300 induced agar cultures instead of 20. The induced and chloroform extracted peptide was dried as in step 1 and resuspended in 20 ml of 35% ACN in water (v/v) supplemented with 0.1% TFA. The peptides preparation was processed via solid-phase extraction using C18 Sep-Pak® column (Waters, USA) prewashed with methanol and water. After loading the peptides sample, the column was washed with 10 mL of increasing methanol concentrations (10%, 30%, 50%, 70%). Active peptides were eluted with 95% methanol supplemented with 0.1% TFA. The peptides were finally purified using HPLC and C18-Reversed Phase chromatography as mentioned previously. Eluted fractions (1 ml per minute) were tested for antimicrobial activity against the sensitive strain M. luteus ATCC10240 using the spot-on-lawn method.

[3] = tested on: human whole blood neutrophils and monocytes; assay: Whole blood phagocytosis (pHrodo) and CD marker flow cytometry; assay type: cell-based; conditions: N-terminal analogues, unlike full-length salivaricin 10
Text: Neutrophils and monocytes display different activation states characterized by expression levels of cell surface CD marker in the oral cavity depending on the bacteria that they are interacting with. In health, neutrophils in the oral cavity are in a parainflammatory state, and with dysbiosis neutrophil phenotypes change towards a proinflammatory state. To determine if salivaricin 10 can prime neutrophils to augment pathogen elimination through phagocytosis, the surface expression of specific activation CD markers was assessed on human and murine neutrophils stimulated either with pHrodo (pH-sensitive, heat killed E. coli) alone or with salivaricin 10 and pHrodo. […]
SONY SA3800 flow cytometer was used to acquire the data. […] To validate the gating strategy and antibody labeling FMO (fluorescence minus one) controls were used. […]
Data were analyzed by FlowJo software (v10.8; Tree Star). The mean fluorescence intensities (MFIs) for each CD marker were measured. Significant differences (P<0.05) were determined using GraphPad Prism 9 (GraphPad Software, Inc.). for the in-vitro human blood and mouse bone marrow assay paired Student's t-test (n=3) was used for the statistical analysis. […]

[4] = tested on: CXCL10 and TGM2 gene expression in M1 macrophages; assay: Macrophage gene expression assay (CXCL10, TGM2); assay type: cell-based; conditions: 40 μg/mL
[5] = tested on: saliva-derived multispecies biofilms; assay: Preformed saliva-derived multispecies biofilm, Live/Dead confocal microscopy; assay type: cell-based, human saliva bacteria; conditions: salivaricin 10 at 25 and 50 μg·ml^−1; nisin A at 50 μg·ml^−1; 20 min
Description: Biofilms were formed ex-vivo using cell-free saliva as a medium and total salivary cell as inoculum (from healthy subjects). Twenty-four hours pre-formed multispecies biofilms grown anaerobically were treated with either nisin A (50 μg·ml^−1) or two concentrations of salivaricin 10 (25 and 50 μg·ml^−1) for a time exposure of 20 min. […] Salivaricin 10 penetrated saliva-derived multispecies biofilms and effectively killed the bacterial cells within (labeled with PI, lighter gray). No such effect was noticed with untreated (PBS) biofilms controls where the viable cells labeled mainly with Syto9, black. the ratio of live to dead cells decreased by a factor of 6 times compared to PBS treated conditions. […] This dose-dependent reduction in the oral biofilm thickness was reported previously for nisin A [27].
12. Antimicrobial Activity Against Preformed Biofilms (Saliva-Derived De Novo Model)
Saliva-derived biofilms were established in 24 well glass bottom sensoplates (Greiner Bio-One, Monroe, NC, USA) as mentioned previously. […] The mean Intensity of pixels for viable signals (Syto-9; live) and (PI; dead) were measured within biofilm areas of each image with the slices containing the highest respective signal intensity using custom Fiji (ImageJ). […] All quantifications and statistical calculations are based on 10-15 images and 5-10 stacks for each repeat (three repeats). […]

[6] = tested on: saliva-derived multispecies biofilms; assay: Preformed saliva-derived multispecies biofilm, 16S rRNA gene sequencing; assay type: cell-based, human saliva bacteria
Text: 13. 16S rRNA Gene Sequencing […] 14. […] The UNOISE pipeline, available through […]11.0.667 and […]2.10.4, was used for sequence analysis. […] 5, a -[…] […] 1.0.

CSCC[C@H](NC=O)C(=O)N[C@@H](CC(C)C)C(=O)N[C@@H](Cc1ccccc1)C(=O)O [fMLP, N-formyl-methionyl-leucyl-phenylalanine, reference compound]
neutrophil migration speed ([1]; control peptide): ~11 μm/minute

GWFTAVQLTLAGRCGRWFTGSFECTTNNVKCG (cysteine pairing not given here; also: lanthionine modifications; listed as Streptococcus salivarius) [SrnA1, lanthipeptide of salivaricin 10, phenylalanine at position 22]
antimicrobial activity (zone of inhibition) of the isolated peptide [2]: reduced

GWFTAVQLTLAGRCGRWFTGSYECTTNNVKCG (cysteine pairing not given here; also: lanthionine modifications; listed as Streptococcus salivarius) [SrnA2, major lanthipeptide of salivaricin 10, tyrosine at position 22]
antimicrobial activity (zone of inhibition) of the isolated peptide [2]: more extensive zone of inhibition

GWSTAVRLTVQGRCGWWFTHSYECTSPNVRCG (cysteine pairing not given here; also: lanthionine modifications; listed as Streptococcus salivarius) [SrnA4]
antimicrobial activity (zone of inhibition) of the isolated peptide [2]: Reduced antimicrobial activity

NH2-GWFTAVQL-COOH (H-GWF[pT]AVQL-OH; SMILES CC(C)C[C@H](NC(=O)[C@H](CCC(N)=O)NC(=O)[C@@H](NC(=O)[C@H](C)NC(=O)[C@@H](NC(=O)[C@H](Cc1ccccc1)NC(=O)[C@H](Cc1c[nH]c2ccccc12)NC(=O)CN)[C@@H](C)OP(=O)(O)O)C(C)C)C(=O)O; listed as Streptococcus salivarius) [p(1-8) Sali10, chemically synthesized eight N-terminal unbridged residues of SrnA1 and SrnA2 with pThr4]
effects on the neutrophils' CD marker expression [3]: Neither p (1-8) Sali10 (SEQ ID NO: 16) nor np (1-8) Sali10 showed effects
neutrophil chemotaxis of the N-terminal tail analogues ([1]; 40 μg/mL, compared with full-length salivaricin 10): very similar activity to the full-length salivaricin 10
gene expression of CXCL10 (M1 macrophage biomarker) [4]: downregulated
gene expression of TGM2 (M2 macrophage biomarker) compared to M1 control cells [4]: upregulated

nisin A
damage to biofilm architecture (confocal images) [5]: significant and critical damage to the biofilm architecture
S. gordonii, S. parasanguinis levels in the biofilm [6]: strongly inhibited
commensal species of the genera Veillonella, Streptococcus and Haemophilus in the biofilm ([6]; salivaricin 10 at 25 μg and 50 μg): disrupted the indigenous oral biofilm, including beneficial commensals

Reference: patent US20250144168A1, “LANTHIPEPTIDES AND METHODS OF USE” (priority 2022, published 2025)
